Assay results taken from US20080255121A1, “Combination Drug for Treating Autoimmune Disease” (DAINIPPON SUMITOMO PHARMA CO., LTD., priority 2004, published 2008).
Values joined by “and” are separate entries in the source; they are usually repeats but may differ in a detail not shown here. Equal values may be shown once. Values belong to the molecule of their own block, whether it stands above or below them.

Columns and labels:
CaMKIIα derived from rat = target: T1, CaMKIIα derived from rat (Rattus norvegicus, UniProt P11275); experiment: Examination of CaMKII inhibitory activity (1), phosphorylation of Autocamtide-2; assay type: biochemical
T1 construct: purchased Santa Cruz, Inc
Experimental: Test substances were dissolved in DMSO and diluted to various concentrations with a buffer solution (50 mM Tris-HCl: pH 7.5, 10 mM MgCl2, 1 mM Dithiothreitol (DTT)) (all of them are available from Nacalai Tesque, Inc.) for CaMKII reaction. CaMKIIα (final concentration 0.75 μg/ml) (Santa Cruz, Inc.) derived from rat was mixed with Autocamtide-2® (40 μM) (CALBIOCHEM Company) dissolved in CaMKII reaction buffer solution in the presence of the test substance and with CaMKII activation buffer solution (1 mMCaCl2, 1 μM calmodulin) (Nacalai Tesque, Inc.) and the reaction was started by further adding ATP (50 μM) (Nacalai Tesque, Inc.). The reaction was performed at 30° C. for five minutes and then SDS-PAGE sample buffer solution was added and the reaction was terminated by boiling for five minutes. Proteins in the reaction mixture were separated by 15% SDS-PAGE and blotted onto a PVDF membrane. Phosphorus taken in by Autocamtide-2 was reacted with an anti-phosphorylated serine/threonine antibody (Santa Cruz, Inc.) and quantified by ECL system (Amersham, Inc.) and NIH Image (downloadable from http://rsb.info.nih.gov/nih-image/).

[1] = test system: adjuvant-induced arthritis rats; experiment: Combination effect on adjuvant-induced arthritis (Example 19); assay type: in vivo, rat; conditions: only methotrexate 0.060 mg/kg oral once a day 17 days
Experimental: Combination effect for rat adjuvant-induced arthritis was examined in the same manner as in Example 17.
The volume of the left hind paw was measured by water replacement method just before the administration and after the last administration, and AUC (the area under the curve formed by plotting the difference of the value at the time of grouping from the value of each time point during the administration period against the time) of the increased volume of the left hind paw was determined. Joint destruction of the right hind paw (injected paw) and the left hind paw (non-injection paw) can be measured by X-ray and this can be also used as the index to evaluate the combination effect.

[2] = test system: adjuvant-induced arthritis rats; experiment: Combination effect on adjuvant-induced arthritis, joint destruction score by soft X-ray (Example 20); assay type: in vivo, rat; conditions: Compound (I) 40 mg/kg and/or methotrexate 0.06 mg/kg, maximum 12
Experimental: Combination effect for adjuvant-induced arthritic rats was examined in the same manner as in Example 17.
Euthanasia was carried out for all the rats by aspiration of high concentration carbon dioxide after the last administration. Both the hind paws were cut off at the middle point of […]. Both the hind paws were fixed with 10% neutral buffered formalin liquid. […] The degree of joint destruction was recorded with a score. Observed sites were three points of the tibia, calcaneum and tarsal bone, and the possible maximum score was 12.
1: Minimum destruction of joints and bones and new formation of cartilages
2: Mild destruction of joints and bones and new formation and light ossification of cartilages
3: Moderate destruction of joints and bones and ossification
4: Severe destruction and deformation of joints and bones and intense ossification

[3] = test system: adjuvant-induced arthritis rats; experiment: Adjuvant-induced arthritis, therapeutic and prophylactic model; assay type: in vivo, rat; conditions: Compound (I) 2.5 to 80 mg/kg
Experimental: The adjuvant-induced arthritis model is a representative chronic inflammation model caused in rats, and it is widely used for pharmacological evaluation of antiinflammatory drugs and antirheumatic drugs. Accordingly, effects of Compound (I) and Compound (II) were examined in both therapeutic and prophylactic model. In the therapeutic model, the difference of the volume of a hind leg before and after the dosed period was calculated to examine edema suppression effect by the drug administration and the change of edema volume was examined. In the prophylactic model, the volume of a hind paw was measured over time during the dosed period and the effect of the drug for a long term period was examined. Although the hind paw volume or the edema volume was used as the index of efficacy evaluation, the edema volume means the increment from the normal volume of the hind paw which was not sensitized with the adjuvant, and therefore, the both indices can be used as approximately the same meaning.
A liquid paraffin suspension (1 mg/200 μl) of Mycobacterium butyricum (adjuvant) was subcutaneously injected at the tarsal part of the right hind paw of SD or Lewis rats (both male, six-week old) to cause arthritis. In the therapeutic model, 0.5% methylcellulose suspension of Compound (I) or Compound (II) which was prepared so that the dose was 1 ml per 100 g body weight was orally administered once a day for consecutive five days from the 17th day after the injection of the adjuvant. An indomethacin suspension prepared in the similar way was administered as the positive control. The volume of the hind paws was measured respectively for the right and the left by water replacement method just before the administration and in five hours after the last administration and the difference in the values just before the administration and in five hours after the last administration was calculated and assumed as the change in the edema volume. In the prophylatic model, the compounds were administered once a day for consecutive 21 days after the day when the adjuvant was injected. The volume of the right and left hind paws was measured by water replacement method every other day. In the prophylactic model of Compound (II), a suspension of D-penicillamine, an antirheumatic drug, was administered in the same way as a control.

[4] = test system: mouse type III allergy reaction; conditions: reported in Patent Document 4; cited from earlier work
adjuvant arthritis rats = conditions: reported in Patent Documents 3, 4 and Non-Patent Documents 3 to 5; cited from earlier work
[5] = test system: experimental allergic encephalomyelitis mice; experiment: Experimental allergic encephalomyelitis, Compound (I); assay type: in vivo
Description: The severity of the condition was indicated as a score (disease score) according to the following criteria.
0.5: Slight paralysis of tail
2: Light paralysis of hind paw
3: Medium to intense paralysis of hind paw or light forelimb paralysis
4: Complete paralysis of hind paw or medium to intense paralysis of forelimb
5: Paralysis of four limbs or toward death period
In the prednisolone administered group as a positive control, prednisolone was suspended in 0.5% methylcellulose solution to prepare a liquid of 0.3 mg/ml for administration and 0.1 ml per 10 g mouse weight was orally administered. In a control group, only 0.5% methylcellulose solution was […] administered. The administration was started on the sensitization day and carried out once a day for consecutive 40 days.

T1 sequence (P11275 whole entry): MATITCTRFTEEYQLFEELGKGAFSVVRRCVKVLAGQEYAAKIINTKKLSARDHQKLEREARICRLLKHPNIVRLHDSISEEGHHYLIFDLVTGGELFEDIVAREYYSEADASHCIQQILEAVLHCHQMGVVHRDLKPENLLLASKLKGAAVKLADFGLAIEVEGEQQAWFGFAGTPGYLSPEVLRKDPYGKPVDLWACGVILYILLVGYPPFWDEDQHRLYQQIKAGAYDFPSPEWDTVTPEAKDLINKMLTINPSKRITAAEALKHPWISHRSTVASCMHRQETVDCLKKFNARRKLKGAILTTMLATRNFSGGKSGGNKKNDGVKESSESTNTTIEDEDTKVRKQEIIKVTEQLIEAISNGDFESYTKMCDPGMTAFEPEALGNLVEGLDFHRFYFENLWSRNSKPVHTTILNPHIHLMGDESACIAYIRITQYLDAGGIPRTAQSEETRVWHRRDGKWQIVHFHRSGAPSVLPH

Inhibition rate (%) (CaMKIIα derived from rat; Concentration 0.1 μm): 11%
Inhibition rate (%) (CaMKIIα derived from rat; Concentration 1 μm): 36%
Inhibition rate (%) (CaMKIIα derived from rat; Concentration 10 μm): 68%
SMILES: CCN/C(N)=N/c1cc(C(C)c2ccc(-c3ccccc3)c(F)c2)no1.Cl (stereo not shown) [Compound (Ic), N-ethyl-N′-{3-[1-(2-fluorobiphenyl-4-yl)-ethyl]-isoxazol-5-yl}-guanidine hydrochloride]

SMILES: CN(Cc1cnc2nc(N)nc(N)c2n1)c1ccc(C(=O)N[C@@H](CCC(=O)O)C(=O)O)cc1 [methotrexate, reference compound]
increased volume and onset ratio of left hind paw [1]: onset suppressing effect and edema suppressing effect
joint destruction score of the left hind paw, representative individual which showed an average score in the group ([2]; control score 3): 2
joint destruction score of the right hind paw, representative individual which showed an average score in the group ([2]; control score 10): 9

Inhibition rate (%) (CaMKIIα derived from rat; Concentration 0.1 μm): 45%
Inhibition rate (%) (CaMKIIα derived from rat; Concentration 1 μm): 62%
Inhibition rate (%) (CaMKIIα derived from rat; Concentration 10 μm): 92%
SMILES: CNc1nc(C(C)c2ccc(-c3ccccc3)c(F)c2)cs1 (stereo not shown) [Compound (II), 4-[1-(2-fluorobiphenyl-4-yl)ethyl]-2-(methylamino)thiazole]
hind paw volume / edema volume ([3]; prophylactic model, oral once a day for 21 days, Compound (II) 50 mg/kg, FIGS. 8 and 9): remarkable edema suppressing effect
change of edema volume of hind paw ([3]; therapeutic model, oral once a day for five days from 17th day, Compound (II) 10 to 50 mg/kg, FIGS. 6 and 7): remarkable edema suppressing effect
edema in mouse type III allergy reaction tests [4]: inhibitory effects on edema
effects on adjuvant arthritis rats (adjuvant arthritis rats): anti-arthritis effects

SMILES: C[C@]12C=CC(=O)C=C1CC[C@@H]1[C@@H]2[C@@H](O)C[C@@]2(C)[C@H]1CC[C@]2(O)C(=O)CO [Prednisolone, prednisolone, reference compound]
weight gain (natural accruement of weight by growth) ([5]; Compound (I) 20 to 80 mg/kg, prednisolone 3 mg/kg, oral once a day 40 days, FIG. 14): strongly suppressed natural accruement of weight by growth
Death Rate ([5]; Dose 3 mg/kg oral once a day 40 days): 0/10
Onset Rate ([5]; Dose 3 mg/kg oral once a day 40 days, 3 mg/kg): 2 of 10 and 2/10

Inhibition rate (%) (CaMKIIα derived from rat; Concentration 0.1 μm): 13%
Inhibition rate (%) (CaMKIIα derived from rat; Concentration 1 μm): 42%
Inhibition rate (%) (CaMKIIα derived from rat; Concentration 10 μm): 71%
SMILES: CC(c1ccc(-c2ccccc2)c(F)c1)c1cc(/N=C(/N)N(C)C)on1.Cl (stereo not shown) [Compound (Ib), N′-{3-[1-(2-fluorobiphenyl-4-yl)-ethyl]-isoxazol-5-yl}-N,N-dimethyl-guanidine hydrochloride]
